In patent US9573887B2, “Naphthalene derivative” (Daito Chemix Corporation, priority 2010, dated 2017):
Counter-ions that a name gives are not always drawn.

Molecular target: T1, Mouse VCP (Mus musculus, UniProt Q01853)
T1 construct: histidine tag (N); made in house; host or cells: Sf-9 insect cells (baculovirus vector pVL1392)
Test: ATPase activity of purified His-tagged VCP, [γ-32P]ATP, liberated phosphate by liquid scintillation
Format: biochemical
Method: In one aspect, the effect of VCP regulators for regulating ATPase activity is determined, for example by the following exemplary assay. Mouse VCP cDNA (the amino acid sequence is completely identical among mouse, rat and human) is added with a DNA sequence corresponding to a histidine tag at the amino-terminal, subcloned into a baculovirus vector pVL1392 (BD Bioscience), and expressed in Sf-9 insect cells. The protein is purified with a nickel column. After the purification the concentration of the protein is adjusted to 0.25-0.5 μg/ml and the protein is stored in a solution containing 50 mM TrisCl pH 8.0, 5 mM EDTA, 10% glycerol, and 15 mM DTT at 4° C. 500 ng of the purified VCP is mixed with 100 μM [γ-^32P]ATP (18.5 GBq/mmol) and the test substance in 20 μL of ATPase buffer (20 mM HEPES (pH7.4), 50 mM KCl, 5 mM MgCl2, 15 mM DTT), and incubated at 37° C. for 10 minutes. The enzyme reaction is stopped with addition of 200 μL of an ice-cold solution containing 7% TCA and 1 mM K2HPO4. 50μ of a solution containing 3.75% ammonium molybdate and 0.02M tungstate silicic/3 N H2SO4 is added, followed by 300 μL of n-butylacetic acid, and then the liberated phosphate is extracted into the organic layer. The reaction tube is centrifuged for 5 minutes at 20,000 g to separate the aqueous layer and the organic layer, 200 μL of the organic layer is taken, and the beta ray radiated from the liberated phosphate is quantified with liquid scintillation counter. By measuring the ATPase activity in the presence of the test substance at various concentrations, ATPase inhibitory activity of the test substance is measured.
Mouse VCP cDNA was added with a DNA sequence corresponding to histidine tag at the amino-terminal, subcloned into a baculovirus vector pVL1392 (BD Bioscience), and expressed in Sf-9 insect cells. The protein was purified with a nickel column (GE Healthcare). The concentration of the protein was adjusted to 0.25-0.5 μg/ml and the protein was stored in a solution containing 50 mM TrisCl pH 8.0, 5 mM EDTA, 10% glycerol, and 15 mM DTT.
The ATPase activity was determined as follows. 500 ng of the purified VCP was mixed with 100 μM [γ-32P]ATP (18.5 GBq/mmol) and the test substance in 20 μL of ATPase buffer (20 mM HEPES (pH7.4), 50 mM KCl, 5 mM MgCl2, 15 mM DTT), and incubated at 37° C. for 10 minutes.
The enzyme reaction was stopped with addition of 200 μL of an ice-cold solution containing 7% TCA and 1 mM K2HPO4. 50μ of a solution containing 3.75% ammonium molybdate and 0.02M tungstate silicic/3 NH2SO4 was added, followed by 300 μL of n-butylacetic acid, and then the liberated phosphate was extracted into the organic layer. The reaction tube was centrifuged for 5 minutes at 20,000 g to separate the aqueous layer and the organic layer, 200 μL of the organic layer was taken, and the beta ray radiated from the liberated phosphate was quantified with liquid scintillation counter.
By measuring the ATPase activity in the presence of the test substance at various concentrations, ATPase inhibitory activity of the test substance was measured. IC50 of the each test substance was calculated by applying the measured values to the equation below using GraphPad Prism (GraphPad Software).

[1] = compounds of Comparative Examples, determined in the same manner as the Examples
[2] = compounds of Examples, ATPase inhibitory activity, 500 ng VCP, 100 μM ATP, 37° C., 10 minutes

T1 sequence (Q01853 whole entry): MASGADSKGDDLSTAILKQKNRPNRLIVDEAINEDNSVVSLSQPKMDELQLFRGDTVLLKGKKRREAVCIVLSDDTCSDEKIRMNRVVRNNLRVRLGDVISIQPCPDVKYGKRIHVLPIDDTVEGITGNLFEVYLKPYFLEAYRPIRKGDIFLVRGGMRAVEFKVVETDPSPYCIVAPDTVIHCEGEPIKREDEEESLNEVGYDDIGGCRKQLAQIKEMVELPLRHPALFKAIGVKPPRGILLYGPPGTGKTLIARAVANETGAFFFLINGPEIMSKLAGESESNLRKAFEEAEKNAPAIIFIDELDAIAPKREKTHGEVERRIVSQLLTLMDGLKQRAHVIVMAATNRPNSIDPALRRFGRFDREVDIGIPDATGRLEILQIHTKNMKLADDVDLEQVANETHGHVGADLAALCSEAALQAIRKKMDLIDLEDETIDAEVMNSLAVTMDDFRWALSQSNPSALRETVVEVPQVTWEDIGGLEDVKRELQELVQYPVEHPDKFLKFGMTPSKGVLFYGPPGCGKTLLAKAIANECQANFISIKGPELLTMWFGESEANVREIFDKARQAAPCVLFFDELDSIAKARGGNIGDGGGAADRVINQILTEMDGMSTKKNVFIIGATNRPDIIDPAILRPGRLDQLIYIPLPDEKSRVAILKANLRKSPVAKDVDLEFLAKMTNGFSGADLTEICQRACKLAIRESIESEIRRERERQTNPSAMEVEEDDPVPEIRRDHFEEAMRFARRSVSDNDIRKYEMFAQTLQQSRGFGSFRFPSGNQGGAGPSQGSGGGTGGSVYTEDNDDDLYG

IC50 [1] [nM]	Structure (SMILES)	IC50 [2] [nM]
> 100000	O=[N+]([O-])c1ccc(-c2cccc3c2sc2ccccc23)nc1 [Example 29, sodium salt]	
	Nc1c(/N=N/c2ccc(/C=C/c3ccccc3)nc2)cc(S(=O)(=O)O)c2ccccc12 [Example 30, 4-amino-3-(6-styrylpyridine-3-ylazo)naphthalenesulfonic acid sodium salt]	1140
> 100000	Nc1ccc(-c2cccc3c2sc2ccccc23)nc1 [Example 30, sodium salt]	
	Nc1c(/N=N/c2ccc(-c3cccc4c3sc3ccccc34)nc2)cc(S(=O)(=O)O)c2ccccc12 [Example 31, 4-amino-3-(6-dibenzothiophene-4-ylpyridine-3-ylazo)naphthalene-1-sulfonic acid sodium salt]	1030
	COc1cccc(-c2ccc(/N=N/c3cc(S(=O)(=O)O)c4ccccc4c3N)cn2)c1 [Example 32, 4-amino-3-[6-(3-methoxyphenyl)pyridine-3-ylazo]naphthalene-1-sulfonic acid sodium salt]	428
	Cc1cccc(-c2ccc(/N=N/c3cc(S(=O)(=O)O)c4ccccc4c3N)cn2)c1C [Example 33, 4-amino-3-[6-(2,3-dimethylphenyl)pyridine-3-ylazo]naphthalene-1-sulfonic acid sodium salt]	301
	Cc1ccc(C)c(-c2ccc(/N=N/c3cc(S(=O)(=O)O)c4ccccc4c3N)cn2)c1 [Example 34, 4-amino-3-[6-(2,5-dimethylphenyl)pyridine-3-ylazo]naphthalene-1-sulfonic acid sodium salt]	274
	Cc1cc(C)cc(-c2ccc(/N=N/c3cc(S(=O)(=O)O)c4ccccc4c3N)cn2)c1 [Example 35, 4-amino-3-[6-(3,5-dimethylphenyl)pyridine-3-ylazo]naphthalene-1-sulfonic acid sodium salt]	632
	Nc1c(/N=N/c2ccc(-c3ncco3)nc2)cc(S(=O)(=O)O)c2ccccc12 [Example 36, 4-amino-3-(6-oxazole-2-ylpyridine-3-ylazo)naphthalene-1-sulfonic acid sodium salt]	279
	Nc1c(/N=N/c2ccc(-c3cccc(C(F)(F)F)c3)nc2)cc(S(=O)(=O)O)c2ccccc12 [Example 37, 4-amino-3-[6-(3-trifluoromethylphenyl)pyridine-3-ylazo]naphthalene-1-sulfonic acid sodium salt]	726
	Nc1c(/N=N/c2ccc(-c3cccc4ccccc34)nc2)cc(S(=O)(=O)O)c2ccccc12 [Example 38, 4-amino-3-(6-naphthalene-1-ylpyridine-3-ylazo)naphthalene-1-sulfonic acid sodium salt]	234
	Nc1c(/N=N/c2ccc(-c3cccc4c3oc3ccccc34)nc2)cc(S(=O)(=O)O)c2ccccc12 [Example 39, 4-amino-3-(6-dibenzofuran-4-ylpyridine-3-ylazo)naphthalene-1-sulfonic acid sodium salt]	754
	COC(=O)CCC(=O)c1ccc(-c2ccc(/N=N/c3cc(S(=O)(=O)O)c4ccccc4c3N)cn2)cc1 [Example 40, methyl 4-{4-[5-(1-amino-4-sulfonaphthalene-2-ylazo)pyridine-2-yl]phenyl}-4-oxobutyrate sodium salt]	328
	Nc1c(/N=N/c2ccc(-c3csc4ccccc34)nc2)cc(S(=O)(=O)O)c2ccccc12 [Example 41, 4-amino-3-(6-benzo[b]thiophene-3-ylpyridine-3-ylazo)naphthalene-1-sulfonic acid sodium salt]	210
	Nc1c(/N=N/c2ccc(-c3cccc(-c4ccccc4)c3)nc2)cc(S(=O)(=O)O)c2ccccc12 [Example 42, 4-amino-3-(6-biphenyl-3-ylpyridine-3-ylazo)naphthalene-1-sulfonic acid sodium salt]	769
	Nc1c(/N=N/c2ccc(-c3cccc4c3sc3ccccc34)nc2)cc(S(=O)(=O)O)c2ccccc12 [Example 43, 4-amino-3-(6-dibenzothiophene-4-ylpyridine-3-ylazo)naphthalene-1-sulfonic acid potassium salt]	1040
	N#Cc1cccc(-c2ccc(/N=N/c3cc(S(=O)(=O)O)c4ccccc4c3N)cn2)c1 [Example 44, 4-amino-3-[6-(3-cyanophenyl)pyridine-3-ylazo]naphthalene-1-sulfonic acid sodium salt]	584
	N#Cc1ccc(-c2ccc(/N=N/c3cc(S(=O)(=O)O)c4ccccc4c3N)cn2)cc1 [Example 45, 4-amino-3-[6-(4-cyanophenyl)pyridine-3-ylazo]naphthalene-1-sulfonic acid sodium salt]	524
	Nc1c(/N=N/c2ccc(-c3ccc(C(=O)c4ccccc4)cc3)nc2)cc(S(=O)(=O)O)c2ccccc12 [Example 47, 4-amino-3-[6-(4-benzoylphenyl)pyridine-3-ylazo]naphthalene-1-sulfonic acid sodium salt]	589
	CCCOc1ccccc1-c1ccc(/N=N/c2cc(S(=O)(=O)O)c3ccccc3c2N)cn1 [Example 48, 4-amino-3-[6-(2-propoxyphenyl)pyridine-3-ylazo]naphthalene-1-sulfonic acid sodium salt]	127
	Cc1cc(F)ccc1-c1ccc(/N=N/c2cc(S(=O)(=O)O)c3ccccc3c2N)cn1 [Example 49, 4-amino-3-[6-(4-fluoro-2-methylphenyl)pyridine-3-ylazo]naphthalene-1-sulfonic acid sodium salt]	330
	Nc1c(/N=N/c2cccnc2-c2ccccc2)cc(S(=O)(=O)O)c2ccccc12 [Example 50, 4-amino-3-(2-phenylpyridine-3-ylazo)naphthalene-1-sulfonic acid sodium salt]	468
	Nc1c(/N=N/c2cccnc2-c2cccnc2)cc(S(=O)(=O)O)c2ccccc12 [Example 51, 4-amino-3-([2,3′]-bipyridinyl3-ylazo)naphthalene-1-sulfonic acid sodium salt]	3070
	Nc1c(/N=N/c2ccc(-c3cccnc3)nc2)cc(S(=O)(=O)O)c2ccccc12 [Example 52, 4-amino-3-([2,3′]bipyridinyl-5-ylazo)naphthalene-1-sulfonic acid sodium salt]	1390
	Cc1cc(-c2cccnc2)ncc1/N=N/c1cc(S(=O)(=O)O)c2ccccc2c1N [Example 53, 4-amino-3-(4-methyl-[2,3′]bipyridinyl-5-ylazo)naphthalene-1-sulfonic acid sodium salt]	1150
	Nc1c(/N=N/c2ccc(-c3cccnc3)nc2-c2cccnc2)cc(S(=O)(=O)O)c2ccccc12 [Example 54, 4-amino-3-([3,2′;6′,3″]terpyridine-3′-ylazo)naphthalene-1-sulfonic acid sodium salt]	1060
	CCCOc1ccc(F)cc1-c1ccc(/N=N/c2cc(S(=O)(=O)O)c3ccccc3c2N)cn1 [Example 55, 4-amino-3-[6-(5-fluoro-2-propoxyphenyl)pyridine-3-ylazo]naphthalene-1-sulfonic acid sodium salt]	139
	CCCOc1cccc(F)c1-c1ccc(/N=N/c2cc(S(=O)(=O)O)c3ccccc3c2N)cn1 [Example 56, 4-amino-3-[6-(2-fluoro-6-propoxyphenyl)pyridine-3-ylazo]naphthalene-1-sulfonic acid sodium salt]	246
	CCCOc1cc(F)ccc1-c1ccc(/N=N/c2cc(S(=O)(=O)O)c3ccccc3c2N)cn1 [Example 57, 4-amino-3-[6-(4-fluoro-2-propoxyphenyl)pyridine-3-ylazo]naphthalene-1-sulfonic acid sodium salt]	1390
	Cc1ccc(F)cc1-c1ccc(/N=N/c2cc(S(=O)(=O)O)c3ccccc3c2N)cn1 [Example 58, 4-amino-3-[6-(5-fluoro-2-methylphenyl)pyridine-3-ylazo]naphthalene-1-sulfonic acid sodium salt]	320
